A short description of series [1]: Body weight of rats after spinal cord injury (SCI) surgery. The series is classed as in vivo. The note with it: 1 mg/kg subcutaneous daily, female SD rats, FIG. 2. The method, then:
(§1) Female SD rats (250-270 g) were randomly grouped after being weighed. After the dorsal T10 segment lamina of the rats was removed, spinal cord contusion was performed on rats in each spinal cord injury (SCI) surgery group, while for rats in the sham operation (sham) group, only the T10 segment lamina was removed without contusion. Rats with a BBB locomotor score > 1 on day 1 after spinal cord injury surgery were excluded, and the remaining rats were randomly grouped and subcutaneously injected daily with: equal volume of physiological saline (vehicle control), PW5 (1 mg/kg), and PW337 (1, 2, 4 mg/kg); rats in the sham operation group were not injected. The body weight of the rats was measured weekly after spinal cord injury surgery, and BBB scoring and open field activity tests were performed.

Series [2] relates to rats with chronic spinal cord injury. In words: BBB locomotor scoring in rats with chronic spinal cord injury. Type of series: in vivo. Conditions: 2 mg/kg subcutaneous daily; days 1-14 after surgery (acute and subacute phase), FIG. 4. The method, then: as §1, with “(2” for “(1”, “(2” for “(1, 2, 4”, “BBB scoring” for “The body weight of the rats”, “performed” for “measured”, “surgery.” for “surgery, and BBB scoring and open field activity tests were performed.”

The nature of series [3]: Determination of the half-life of polypeptides in rats (plasma LC-MS/MS). Type of series: in vivo. Details: AUClast (0-120 min): unit not given here. Conditions: male SD rats, intravenous 4 mg/kg. The method, then: Plasma sample collection method: 2 male SD rats (280-300 g) were intravenously injected with PW5, PW6, PW182, and PW337 respectively, the pure peptide dose was 4 mg/kg, and the dosing volume was 2 mL/kg. At 0.5 min, 2 min, 5 min, 10 min, 15 min, 30 min, 60 min, and 120 min after intravenous injection of the drug via the tail vein, blood (400 µL/time) was collected through an indwelling jugular vein catheter into anticoagulant tubes containing EDTA-K2, and 100x protease inhibitor (1:50, v:v; Roche, 11873580001) was added. Whole blood samples were placed on ice and centrifuged (3200 g, 4°C, 10 min) within 1 hour after blood collection. Plasma was taken into a pre-cooled centrifuge tube, protease inhibitor (1:50, v:v) was added again, mixed homogeneously, and stored at -80°C.
Plasma sample processing method: Plasma samples were pipetted into a 96-well plate (50 µL/well), pure methanol (300 µL/well) was added, and mixed by vortexing (1500 rpm, 10 min). Centrifuged (4800 g, 4°C, 10 min), the supernatant was taken into a new 96-well plate (100 µL/well), a 20% aqueous methanol solution containing 0.2% formic acid (100 µL/well) was added, and mixed by vortexing (1500 rpm, 3 min). 10.0 µL was injected for LC-MS/MS analysis to obtain the drug concentration in the samples. Instrument model: (Waters TQ-XS) Chromatographic column: SHIMADZU Shim-Pack Scepter Claris C4-300 (2.1×50 mm, 1.9 µm) Detection results: Table 3. Half-life, blood drug concentration, and AUC data of the conjugates

For series [4], the system named is SH-SY5Y cells. In words: Axonal growth of RA-differentiated SH-SY5Y cells on proteoglycan (ACAN) coating. The series is classed as cell-based, human. Conditions: PW polypeptide 2.5 µM, 72 h, proteoglycan (ACAN)-coated plate, FIG. 1. The method, then: Therefore, RA-induced differentiated SH-SY5Y can be used to simulate neuronal axonal growth in vitro and to test the effects of PW polypeptides on axonal growth.
Preparation of culture medium for SH-SY5Y: 1) DMEM/F12 + 10% FBS + 1 × penicillin-streptomycin + 1 mM sodium pyruvate; 2) DMEM/F12 + 1% FBS + 1 × penicillin-streptomycin + 1 mM sodium pyruvate. Preparation of 50 mM retinoic acid stock solution: 15.02 mg of retinoic acid was weighed and dissolved in 1 mL of dimethyl sulfoxide (DMSO), aliquoted, and frozen at -80°C. Proteoglycan (ACAN/CSPG1) is a type of chondroitin sulfate proteoglycan (CSPG). Preparation of 1 mg/mL proteoglycan stock solution: 1 mg of ACAN solid was dissolved in 1 mL of distilled water, aliquoted, and frozen at -80°C. Preparation of PW polypeptide solution for cells (1 mM): the corresponding mass of polypeptide powder was weighed, dissolved in PBS and filtered through a 0.2 µm filter membrane, aliquoted, and frozen at -20°C.
The 1 mg/mL proteoglycan was diluted to 250 µg/mL with distilled water to coat a 24-well cell culture plate: each well was coated with 3 droplets of ACAN, 2 µL per droplet. Using the culture medium containing 10% FBS, SH-SY5Y cells were seeded in the proteoglycan-coated 24-well plate (20,000 cells/well) and incubated (37°C, 5% CO2) for 20 h. The medium was replaced with a culture medium containing 1% FBS, and PW polypeptide (2.5 µM) or an equal volume of PBS solution was added. After incubation for 72 h, the cells were fixed with 4% paraformaldehyde (room temperature, 30 min), and cell morphology was photographed and recorded using a 10× optical microscope. 20-30 cells were randomly selected under each field of view, and axonal length was measured using Image J-SNT.
Data analysis: All measured axonal lengths within each proteoglycan-coated range were averaged to serve as one data point. One-way analysis of variance and Tukey's test were used to compare the differences between groups. P<0.05 was considered as a significant difference.

The term half-life denotes the time in which the quantity being followed falls by half.

No end group written: not given here.

Regarding `CC[C@H](C)[C@H](NC(=O)[C@H](CO)NC(=O)[C@H](CCC(=O)O)NC(=O)[C@H](Cc1ccc(O)cc1)NC(=O)[C@H](CCC(=O)O)NC(=O)[C@H](CCC(N)=O)NC(=O)[C@H](CO)NC(=O)[C@H](CC(C)C)NC(=O)[C@H](CCCCN)NC(=O)[C@H](CC(C)C)NC(=O)[C@H](CO)NC(=O)[C@H](CC(=O)O)NC(=O)[C@H](CC(N)=O)NC(=O)[C@H](C)NC(=O)[C@H](CCCCN)NC(=O)[C@H](CC(C)C)NC(=O)[C@H](CCCNC(=N)N)NC(=O)[C@H](CCC(=O)O)NC(=O)[C@H](CCSC)NC(=O)[C@H](Cc1c[nH]cn1)NC(=O)[C@H](CCC(=O)O)NC(=O)[C@H](C)NC(=O)[C@H](CCSC)NC(=O)[C@H](CC(=O)O)NC(=O)[C@H](CS)NC(=O)[C@H](CCCNC(=N)N)NC(=O)[C@H](CCCNC(=N)N)NC(=O)[C@H](CCCNC(=N)N)NC(=O)[C@H](CCC(N)=O)NC(=O)[C@H](CCCNC(=N)N)NC(=O)[C@H](CCCNC(=N)N)NC(=O)[C@H](CCCCN)NC(=O)[C@H](CCCCN)NC(=O)[C@H](CCCNC(=N)N)NC(=O)CN)C(N)=O` [PW-5, reference compound], the “body weight recovery compared with rats in the spinal cord injury (SCI) group” value in series [1] was “significantly accelerated on days 27-57 after surgery”. Further, in series [2], the “BBB scores, differences among SCI, PW5 and PW337 groups” value is “no significant differences”. For the same compound, the “AUClast (0-120 min)” value in series [3] is listed as 928. Also, the “30 min blood drug concentration” value in series [3] (30 min after injection) was found to be 0 ng/mL. For the same compound, the half-life in series [3] (rat, plasma) is 4.3 min.
As for `CC[C@H](C)[C@H](NC(=O)[C@H](CO)NC(=O)[C@H](CCC(=O)O)NC(=O)[C@H](Cc1ccc(O)cc1)NC(=O)[C@H](CCC(=O)O)NC(=O)[C@H](CCC(N)=O)NC(=O)[C@H](CO)NC(=O)[C@H](CC(C)C)NC(=O)[C@H](CCCCNC(=O)COCCOCCNC(=O)COCCOCCNC(=O)CC[C@H](NC(=O)CCCCCCCCCCCCCCCCC(=O)O)C(=O)O)NC(=O)[C@H](CC(C)C)NC(=O)[C@H](CO)NC(=O)[C@H](CC(=O)O)NC(=O)[C@H](CC(N)=O)NC(=O)[C@H](C)NC(=O)[C@H](CCCCN)NC(=O)[C@H](CC(C)C)NC(=O)[C@H](CCCNC(=N)N)NC(=O)[C@H](CCC(=O)O)NC(=O)[C@H](CCSC)NC(=O)[C@H](Cc1c[nH]cn1)NC(=O)[C@H](CCC(=O)O)NC(=O)[C@H](C)NC(=O)[C@H](CCSC)NC(=O)[C@H](CC(=O)O)NC(=O)[C@H](CCCNC(=N)N)NC(=O)[C@H](CCCNC(=N)N)NC(=O)[C@H](CCCNC(=N)N)NC(=O)[C@H](CCC(N)=O)NC(=O)[C@H](CCCNC(=N)N)NC(=O)[C@H](CCCNC(=N)N)NC(=O)[C@H](CCCCN)NC(=O)[C@H](CCCCN)NC(=O)[C@H](CCCNC(=N)N)NC(=O)CN)C(N)=O` [PW-337], the “AUClast (0-120 min)” value in series [3] is 4157725. In addition, the level at 0.5 h in series [3] (rat, plasma, 30 min after injection, read-out: 30 min blood drug concentration) is 56.8 µg/mL. Moreover, in series [3] (rat, plasma), the half-life came out at 95.6 min.
Turning to “GRKKRRQRRRCDMAEHTERLKANDSLKLSQEYESI-NH2 [PW-6, reference compound]”, the “effect of promoting axonal growth compared with the scrambled polypeptide (Scr, negative control)” value in series [4] is on record as “significant effect of promoting axonal growth”. Besides, the “AUClast (0-120 min)” value in series [3] came to 1787. In series [3] (30 min after injection), the “30 min blood drug concentration” value worked out at 0 ng/mL. This compound also returned a half-life in series [3] (rat, plasma) of 2.2 min.
